Assay type in all cases: cell-based
Test [1] has as its system MEL-28 (monolayer culture of a human melanoma). Put plainly: Antitumor activity: growth inhibition of MEL-28 cells, 3 days, Crystal Violet staining. The settings on record: for IC50: Homo sapiens, SK-MEL-28, 72 h, MEL-28, three days, 37° C., approximate IC50; for antitumour activity against MEL-28 human melanoma: statement in words. An excerpt:
(§1) An adapted form of the method described by Bergeron et al ("Antineoplastic an antiherpetic activity of spermidine catecholamide iron chelators" Biochem. Bioph. Res. Comm., 1984, 121(3), 848-854, and see also Schroeder et al, "Effects of Acyclic Pyrimidine Nucleoside Analogues" Med. Chem., 1981, 24 1078-1083) was used to determine the antitumor activity of the compounds of this invention. Three cultures of antitumour cell were employed. A-549 (monolayer culture of a human lung carcinoma, HT-29 (monolayer culture of a human colon carcinoma) and MEL-28 J (monolayer culture of a human melanoma).
(§2) A-549, HT-29 and MEL-28 were seeded into 16 mm wells at 2×20" cells per well in 1 ml aliquots of MEM 10FCS containing the identical concentration of drug. A separate set of cultures without drug was seeded a control growth to ensure that cells remained in exponential phase of growth. All determinations were carried out in duplicate. After three days of incubation at 37° C., 10% CO2 in 98% humid atmosphere, the wells were stained with 0.1% Crystal Violet. An approximate IC50 was determined by comparing growth in wells with drug to the growth in control wells.

For test [2], the system named is A-549 (monolayer culture of a human lung carcinoma). Put plainly: Antitumor activity: growth inhibition of A-549 cells, 3 days, Crystal Violet staining. As to conditions: for IC50: Homo sapiens, A549, 72 h, A-549, three days, 37° C., approximate IC50; for antitumour activity against A-549 human lung carcinoma: statement in words.
Source text: as §1, §2

Test [3] deals with HT-29 (monolayer culture of a human colon carcinoma). The test can be described thus: Antitumor activity: growth inhibition of HT-29 cells, 3 days, Crystal Violet staining. As to conditions: for IC50: Homo sapiens, 72 h, HT-29, three days, 37° C., approximate IC50; for antitumour activity against HT-29 human colon carcinoma: statement in words.
Source text: as §1, §2

Test [4] has as its system Bacillus sp. M-00-PHD-090 (CETC 4546). Put plainly: Antibiotic sensitivity of the producing strain (PASCO Data Management System MIC Gram Positive). The settings on record: 28° C., 48 hours incubation. How it is done: 5. Antibiotic Sensitivity - PASCO™ Data Management System (Difco) MIC Gram Positive
All cultures were incubated at 28° C. and records of the results were made after 48 hours incubation time. The descriptions of the culture and test results are as follows: […]

For orientation: IC50 means the concentration that inhibits the measured activity by half.

In brackets after ≈: the same amount, converted by molar mass. Bridge positions count the residues as written; N and C are the ends. Square brackets hold non-standard residues; d marks the D form. Peptide text beside a SMILES is read from it. * marks the point of attachment. Ileψ(thiazoline)Cys = CC[C@H](C)[C@H](N)C1=N[C@H](C(=O)*)CS1; dOrn = NCCC[C@@H](N)C(=O)O

For the compound `CC(C)CC(NC(=O)C(O)C(O)C(N)CC(N)=O)C1Cc2cccc(O)c2C(=O)O1` (stereo not shown) [Amicoumacin A, amicoumacin A], in test [1], half-maximal inhibition (IC50) was put at 0.15 µg/mL (≈ 0.354 µM) and the “antitumour activity against MEL-28 human melanoma” value is “exhibit antitumour activity”. Moreover, in test [2], the IC50 turned out to be 0.75 µg/mL (≈ 1.77 µM) and the “antitumour activity against A-549 human lung carcinoma” value is given as “exhibit antitumour activity”. Moreover, in test [3], inhibition was half-maximal at 1.5 µg/mL (≈ 3.54 µM) (IC50) and the “antitumour activity against HT-29 human colon carcinoma” value is on record as “exhibit antitumour activity”.

In the case of `CC(C)CC(N)C(O)C(O)C(=O)NC(CC(C)C)C1Cc2cccc(O)c2C(=O)O1` (stereo not shown) [PM-94128], in test [1], half-maximal inhibition (IC50) required 0.02 µg/mL (≈ 0.0473 µM) and the “antitumour activity against MEL-28 human melanoma” value was “exhibit antitumour activity”. In test [2], the IC50 stood at 0.02 µg/mL (≈ 0.0473 µM) and the “antitumour activity against A-549 human lung carcinoma” value is “exhibit antitumour activity”. In test [3], the IC50 was 0.02 µg/mL (≈ 0.0473 µM) and the “antitumour activity against HT-29 human colon carcinoma” value is recorded as “exhibit antitumour activity”.

For `NCC[C@H](O)C(=O)N[C@@H]1C[C@H](N)[C@@H](O[C@H]2O[C@H](CN)[C@@H](O)[C@H](O)[C@H]2O)[C@H](O)[C@H]1O[C@H]1O[C@H](CO)[C@@H](O)[C@H](N)[C@H]1O` [amikacin], the Antibiotic sensitivity entry in test [4] is recorded as “Sensitive”.

As to `CC1(C)S[C@@H]2[C@H](NC(=O)[C@H](N)c3ccccc3)C(=O)N2[C@H]1C(=O)O` [ampicillin], the Antibiotic sensitivity result in test [4] is “Sensitive”.

On to `CC[C@H](C)[C@H](N)C1=N[C@H](C(=O)N[C@@H](CC(C)C)C(=O)N[C@H](CCC(=O)O)C(=O)N[C@H](C(=O)N[C@H]2CCCCNC(=O)[C@H](CC(N)=O)NC(=O)[C@@H](CC(=O)O)NC(=O)[C@H](Cc3cnc[nH]3)NC(=O)[C@@H](Cc3ccccc3)NC(=O)[C@H]([C@@H](C)CC)NC(=O)[C@@H](CCCN)NC2=O)[C@@H](C)CC)CS1` [bacitracin] ({Ileψ(thiazoline)Cys}-L[dE]IK[dOrn]I[dF]H[dD]N; lactam 4-C), for which the Antibiotic sensitivity entry in test [4] is listed as “resistant”.

`N[C@@H](C(=O)N[C@@H]1C(=O)N2C(C(=O)O)=C(Cl)CS[C@H]12)c1ccccc1` [ceflactor]: in test [4], the Antibiotic sensitivity result was “Sensitive”.

For `CO[C@@]1(NC(=O)Cc2cccs2)C(=O)N2C(C(=O)O)=C(COC(N)=O)CS[C@@H]21` [cefoxitin], the Antibiotic sensitivity entry in test [4] was “Sensitive”.

For the compound `CO/N=C(\C(=O)N[C@@H]1C(=O)N2C(C(=O)O)=C(COC(N)=O)CS[C@H]12)c1ccco1` [cefuroxime], the Antibiotic sensitivity entry in test [4] is recorded as “Sensitive”.

With `CC[C@H]1OC(=O)[C@H](C)[C@@H](O[C@H]2C[C@@](C)(OC)[C@@H](O)[C@H](C)O2)[C@H](C)[C@@H](O[C@@H]2O[C@H](C)C[C@H](N(C)C)[C@H]2O)[C@](C)(O)C[C@@H](C)C(=O)[C@H](C)[C@@H](O)[C@]1(C)O` [erythromycin], in test [4], the Antibiotic sensitivity entry is on record as “Sensitive”.

For `C[C@@H]1O[C@@H]1P(=O)(O)O` [fosfomicin], the Antibiotic sensitivity result in test [4] is “Sensitive”.

Regarding `CCn1cc(C(=O)O)c(=O)c2ccc(C)nc21` [nalidixic acid], the Antibiotic sensitivity entry in test [4] is listed as “Sensitive”.

`CCn1cc(C(=O)O)c(=O)c2cc(F)c(N3CCNCC3)cc21` [norfloxacin]: the Antibiotic sensitivity entry in test [4] is on record as “Sensitive”.

As to `CO[C@@H]1[C@@H](OC(N)=O)[C@@H](O)[C@H](Oc2ccc3c(O)c(NC(=O)c4ccc(O)c(CC=C(C)C)c4)c(=O)oc3c2C)OC1(C)C` [novobiocin], the Antibiotic sensitivity entry in test [4] is given as “Sensitive”.

As to `Cc1onc(-c2ccccc2)c1C(=O)N[C@@H]1C(=O)N2[C@@H]1SC(C)(C)[C@@H]2C(=O)O` [oxacillin], in test [4], the Antibiotic sensitivity result is “Sensitive”.

As for `CC1(C)S[C@@H]2[C@H](NC(=O)Cc3ccccc3)C(=O)N2[C@H]1C(=O)O` [penicillin], in test [4], the Antibiotic sensitivity entry is “Sensitive”.

With `CO[C@H]1/C=C/O[C@@]2(C)Oc3c(C)c(O)c4c(O)c(c(/C=N/N5CCN(C)CC5)c(O)c4c3C2=O)NC(=O)/C(C)=C\C=C\[C@H](C)[C@H](O)[C@@H](C)[C@@H](O)[C@@H](C)[C@H](OC(C)=O)[C@@H]1C` [rifampicin], the Antibiotic sensitivity result in test [4] was “Sensitive”.

For the compound `[H]/N=C(/N)N[C@H]1[C@H](O)[C@@H](O)[C@H](O[C@@H]2O[C@@H](C)[C@](O)(C=O)[C@H]2O[C@@H]2O[C@@H](CO)[C@H](O)[C@@H](O)[C@@H]2NC)[C@@H](N/C(N)=N\[H])[C@@H]1O` [streptomycin], the Antibiotic sensitivity entry in test [4] is recorded as “Sensitive”.

On to `CN(C)C1C(=O)C(C(N)=O)=C(O)C2(O)C(=O)C3=C(O)c4c(O)cccc4C(C)(O)C3CC12` (stereo not shown) [tretracycline], for which, in test [4], the Antibiotic sensitivity result is “Sensitive”.

Turning to `CN[C@H](CC(C)C)C(=O)N[C@H]1C(=O)N[C@@H](CC(N)=O)C(=O)N[C@H]2C(=O)N[C@H]3C(=O)N[C@H](C(=O)N[C@H](C(=O)O)c4cc(O)cc(O)c4-c4cc3ccc4O)[C@H](O)c3ccc(c(Cl)c3)Oc3cc2cc(c3O[C@@H]2O[C@H](CO)[C@@H](O)[C@H](O)[C@H]2O[C@H]2C[C@](C)(N)[C@H](O)[C@H](C)O2)Oc2ccc(cc2Cl)[C@H]1O` [vancomycin], the Antibiotic sensitivity entry in test [4] is reported as “resistant”.

Regarding gentamicin, the Antibiotic sensitivity result in test [4] is recorded as “Sensitive”.

In the case of teicoplanin, the Antibiotic sensitivity result in test [4] was “resistant”.

These data come from patent US5925671A, “Antitumor isocoumarins” (Pharma Mar, s.a., priority 1995, dated 1999).
